The values below come from US20240156790A1, “COMPOUNDS, COMPOSITIONS, AND METHODS FOR MODULATING FERROPTOSIS AND TREATING EXCITOTOXIC DISORDERS” (THE TRUSTEES OF COLUMBIA UNIVERSITY IN THE CITY OF NEW YORK, priority 2018, published 2024).

“Also recorded” adds a separate entry of the source. Where two headings read alike, the source gives them in different places.

One data set relates to HT-1080 cells. Briefly: Cell viability assays in HT-1080 cells, ferroptosis induced by IKE or RSL3 (Example 8). It counts as cell-based. Particulars: for IC50: Homo sapiens, HT-1080, 48 h.
Data set [1] can be described thus: Solubility in the in vivo injection vehicle. The format is physicochemical. To be noted: solution prepared for in vivo injection, no precipitation observed. The method, then:
To achieve the 20 mg/kg dose for each compound, mice were injected with a 2 mg/mL solution in the vehicle described above.

A short description of data set [2]: TH-2-31, TH-4-55-2, TH-4-67 PK Study (IP, IV, PO; plasma and brain). The format is in vivo, C57BL/6 mice. To be noted: for Cmax brain (nM) / concentration in brain following IV administration (rapid accumulation) / half-life / concentration at 24 h / Cmax: 20 mg/kg; for half-life / concentration at 24 h / Cmax: both sexes, C57BL/6, mouse; for half-life: read-out: in vivo brain t1/2; for brain penetrance / accumulation in brain over plasma, in words: mouse, in vivo; for stability / accumulation in plasma in vivo, in words: up to 24 hours. On the procedure:
C57BL/6 mice (8-weeks of age and ˜25 g weight) were weighed before injection and divided into groups of two male and female mice per cage. Compound was dissolved in 5% DMSO/95% of 1:1 [(65% v/v of 25% w/v 2-hydroxypropyl-3-cyclodextrin (Cayman Chemical) dissolved in 20% EtOH, 30% v/v Poly(ethylene glycol)-400 (Sigma Aldrich 202398), 5% v/v Tween 80 (Fluka 59924)):MilliQ water] to create a 2 mg/mL solution. The same formulation without compound was used as a vehicle control. The solution was sterilized using a […] Steriflip filter unit (Thomas Scientific 1189Q46). Mice were dosed IP, IV, and PO routes of administration and euthanized by CO2 asphyxiation for 3 min at 0, 1, 2, 4, 8, and 24 h after administration. To ensure that the vehicle was well-tolerated 4 mice were treated with vehicle and euthanized 4 h after administration. ˜0.5 mL of blood was collected via cardiac puncture and immediately put in K3 EDTA microtubes ([…] 41.1504.105) and kept on ice. Organs were harvested, placed in Eppendorf tubes, and frozen on dry ice. Blood samples were centrifuged for 10 min at 2,100×g at 4° C., then plasma was transferred to a clean tube and frozen on dry ice. Organ samples were weighed and placed in hard tissue homogenizing tubes (Omni International 19-628) and a volume of DEPC-treated nuclease-free water (IBI Scientific IB42200) was added to make a 500 mg/mL solution and homogenized using the Omni Bead Ruptor 4 at speed 5 for 30 seconds. Compound was extracted from plasma or organ homogenate by adding 900 μL acetonitrile to 100 μL plasma or organ homogenate. Samples were mixed by vortexing and allowed to extract overnight at 4° C. prior to mixing for at least 5 min by rotating at room temperature, vortexing, and sonicating for at least 30 second prior to centrifugation for 10 min at 4,000×g and 4° C. The supernatant was then transferred to a glass vial and analyzed by UPLC-MS described below. The concentration of each analog was determined against a standard curve with a nonlinear fit and the data plot in GraphPad Prism 9 and fit with a one phase decay.
Samples from animal studies were analyzed via UPLC-MS using a Waters Xevo G2-Xs QTof Mass spectrometer equipped with an Acquity UPLC. Chromatographic separation was carried out at 50° C. on a Acquity UPLC BEH C18 column (1.7 μm, 2.1 mm×50 mm, pore size 130 Å) over a 4.5 min gradient elution. The flowrate was held constant at 0.8 mL/min. Mobile phase A consisted of water and mobile phase B consisted of ACN both containing 0.1% formic acid. After injection, the gradient was held at 50% A for 0.25 min. For the next minute, the gradient was ramped in a linear fashion to 100% B and held at this composition for 0.5 min. The eluent composition returned to the initial condition in 0.01 min and the column was re-equilibrated for 2.74 min before the next injection. Injection volumes were 0.5 μL (TH-2-31 40 mg/kg) and 1 μL for all other conditions. The Xevo G2-Xs was operated in positive electrospray ionization (ESI) mode. A capillary voltage and sampling cone voltage of 0.5 kV and 30 V were used. The source and desolvation temperatures were kept at 120° C. and […], respectively. Nitrogen was used as the desolvation gas with a flowrate of 750 L/hr. The protonated molecular ion of leucine encephalin ([M+H]^+, m/z 556.2771 was used as a lock mass for mass accuracy and reproducibility. Leucine enkephalin was introduced to the lock mass at a concentration of 2 ng/mL (50% ACN containing 0.1% formic acid), and a flow rate of […]. To avoid signal saturation, the signal transmission was attenuated to <10%, based off the signal intensity of the highest standard concentration for the duration of the run. The data was collected over the mass range m/z 50 to 1200 Da with an acquisition time of 0.1 seconds per scan. The retention time for each analog is detailed below. […]

[3] abbreviates: ^b 2 μM IKE, 48 hours, 1,000 cells/well.
[4] abbreviates: ^c 0.2 μM RSL3, 48 hours, 1,000 cells/well.
Setting [5] is: plasma, all routes of administration, read-out: concentration in plasma 24 hours after administration.

As a reminder, the IC50 is the concentration needed to halve the response being measured. The low end stands for greater potency in that assay, the high end for weaker potency in that assay. Usually Cmax stands for the highest concentration seen after dosing.

Take `CCOC(=O)c1ccc(NC2CCCCC2)c(N)c1` [Fer-1, Ferrostatin-1, reference compound]: the IC50 in the data set with HT-1080 cells (setting [3]) came out at 9.1 nM; in the data set with HT-1080 cells (setting [4]), 3.6 nM.

For `Cc1noc(-c2ccc(NC3CCCCC3)c(NC3CCCCC3)c2)n1` [PHB4082, N1,N2-dicyclohexyl-4-(3-methyl-1,2,4-oxadiazol-5-yl)benzene-1,2-diamine], in the data set on HT-1080 cells, the “potency relative to fer-1 at suppressing ferroptosis, in words” value is reported as “more potent than fer-1”.

Regarding `Cc1noc(-c2cnc(NC3CCCCC3)c(NC3CCCCC3)c2)n1` [TH-2-31, N^2,N^3-dicyclohexyl-5-(3-methyl-1,2,4-oxadiazol-5-yl)pyridine-2,3-diamine], the “potency relative to fer-1 at suppressing ferroptosis, in words” value in the data set on HT-1080 cells is given as “potencies greater than fer-1”. Besides, the IC50 with HT-1080 cells (setting [3]) was 5.6 nM; with HT-1080 cells (setting [4]), 4.8 nM. In addition, the “Concentration (mM)” value in data set [1] is given as 5.6 mM. Further, the “Concentration (mg/mL)” value in data set [1] is recorded as 2 mg/mL. Moreover, the “Cmax brain/ IC50” value in data set [2] (IP) is on record as 633; in data set [2] (IV), 99,335; in data set [2] (PO) it was 353. Moreover, the “Cmax brain (nM)” value is 2,133 nM in data set [2] (IP), 334,759 nM in data set [2] (IV) and 1,190 nM in data set [2] (PO). Further, the “concentration in brain following IV administration (rapid accumulation)” value (shortened to “concentration … (rapid accumulation)”) in data set [2] (IV) is recorded as “greater than 300 μM”. Moreover, the half-life was more than 8 h in data set [2] (brain, ip, R.O.A. IP); less than 1 h in data set [2] (brain, iv, R.O.A. IV); more than 24 h in data set [2] (brain, po, R.O.A. PO). The concentration at 24 h in data set [2] (brain, iv, read-out: concentration in brain 24 hours after administration) was 10 µM; in data set [2] (setting [5]), more than 0.5 µM. Also, the maximum concentration (Cmax) in data set [2] (plasma, ip) is 50.9 µM; in data set [2] (plasma, iv) it was 25.8 µM; in data set [2] (plasma, po), 2.24 µM. The “brain penetrance / accumulation in brain over plasma, in words” value in data set [2] is recorded as “preferentially accumulate in brain over plasma for all time-points following IV administration”.

For the compound `CCC(CC)Nc1cc(-c2nc(C)no2)cnc1NC1CCCCC1` [TH-4-55-2, N^2-cyclohexyl-5-(3-methyl-1,2,4-oxadiazol-5-yl)-N^3-(pentan-3-yl)pyridine-2,3-diamine], in data set [1], the “Concentration (mM)” value amounted to 5.8 mM. For the same compound, the “Concentration (mg/mL)” value in data set [1] was 2 mg/mL. For the same compound, the “Cmax brain/ IC50” value is 1,765 in data set [2] (IP), 35,567 in data set [2] (IV) and 632 in data set [2] (PO). Moreover, the “Cmax brain (nM)” value in data set [2] (IP) is on record as 3,936 nM; in data set [2] (IV), 79,314 nM; in data set [2] (PO), 1,410 nM. Moreover, the “concentration … (rapid accumulation)” value in data set [2] (IV) was more than 75 µM. Also, in data set [2] (all routes of administration), the “time present in plasma at μM concentrations” value is “up to 8 hours”. Moreover, the half-life was more than 8 h in data set [2] (brain, ip, R.O.A. IP); less than 1 h in data set [2] (brain, iv, R.O.A. IV); more than 24 h in data set [2] (brain, po, R.O.A. PO). In addition, the concentration at 24 h in data set [2] (brain, other: IP and PO, IP and PO administration, read-out: concentration in brain 24 hours post administration) was more than 1 µM; in data set [2] (setting [5]), more than 0.8 µM. In addition, the Cmax in data set [2] (plasma, ip) stood at 63.8 µM; in data set [2] (plasma, iv), 32.1 µM; in data set [2] (plasma, po) it was 2.93 µM. In addition, in data set [2], the “brain penetrance / accumulation in brain over plasma, in words” value was “preferentially accumulate in brain over plasma for all time-points following IV administration”. In addition, in data set [2], the “stability / accumulation in plasma in vivo, in words” value was “accumulated the most”.

Regarding `Cc1noc(-c2cnc(NC3CCCC3)c(NC3CCCC3)c2)n1` [TH-4-67, N^2,N^3-dicyclopentyl-5-(3-methyl-1,2,4-oxadiazol-5-yl)pyridine-2,3-diamine], in data set [1], the “Concentration (mM)” value amounted to 6.1 mM. Besides, the “Concentration (mg/mL)” value in data set [1] worked out at 2 mg/mL. For the same compound, the “Cmax brain/ IC50” value in data set [2] (IP) was 1,389; in data set [2] (IV), 24,820; in data set [2] (PO), 740. In addition, the “time present in plasma at μM concentrations” value was “up to 2 hours” in data set [2] (IP administration); “up to 1 hour” in data set [2] (PO and IV administration). For the same compound, the “Cmax brain (nM)” value in data set [2] (IP) is on record as 2,916 nM; in data set [2] (IV), 52,121 nM; in data set [2] (PO), 1,554 nM. The “concentration … (rapid accumulation)” value in data set [2] (IV) was more than 50 µM. The concentration at 24 h in data set [2] (brain, all routes of administration, read-out: concentration in brain 24 hours post administration) was less than 0.2 µM; in data set [2] (setting [5]), less than 0.025 µM. Besides, the half-life in data set [2] (brain, iv, R.O.A. IV) is less than 1 h. Moreover, the Cmax was 82.1 µM in data set [2] (plasma, ip); 40.6 µM in data set [2] (plasma, iv); 1.77 µM in data set [2] (plasma, po). For the same compound, in data set [2], the “stability / accumulation in plasma in vivo, in words” value is reported as “accumulated the least; also recorded: the least stable”.
